Reference: patent US9198433B2, “Substituted benzene fungicides” (E I DU PONT DE NEMOURS AND COMPANY, priority 2007, dated 2015)
Marks after values point to notes of the source that are not given here.

Key:
Assay type in all cases: in vivo
[1] = test system: Alternaria solani; test: Test H: tomato early blight, preventive spray on tomato seedlings, disease rating
Summary of the method: (§1)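 Tomato seedlings sprayed to run-off, as a preventive treatment, with compound suspended in acetone/water (50/50) containing 250 ppm Trem 014 surfactant; 200 ppm equals 500 g/ha. Disease then rated. Values are at 200 ppm unless marked * (40 ppm) or ** (50 ppm).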

[2] = test system: Septoria tritici; test: Test D: wheat leaf blotch, preventive spray on wheat seedlings, disease rating
Summary of the method: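 Wheat seedlings sprayed to run-off with compound in acetone/water containing 250 ppm Trem 014 (200 ppm ≈ 500 g/ha; some results at 40 or 50 ppm), inoculated next day with Septoria tritici spores. Held 48 h saturated at 24 °C, then 19 days at 20 °C before disease rating.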

[3] = test system: Puccinia recondita f. sp. tritici; test: Test B: wheat leaf rust, preventive spray on wheat seedlings, disease rating
Summary of the method: (§2)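 Compounds were dissolved in acetone (3% of final volume), then suspended in 50/50 acetone/water with 250 ppm polyhydric alcohol ester surfactant and sprayed to run-off on wheat seedlings. Unless marked otherwise, values are at 200 ppm (equivalent to 500 g/ha); some are at 40 or 50 ppm.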

[4] = test system: Septoria nodorum; test: Test C: wheat glume blotch, preventive spray on wheat seedlings, disease rating
Summary of the method: as §2

[5] = test system: Erysiphe graminis f. sp. tritici; test: Test A: wheat powdery mildew, preventive spray on wheat seedlings, disease rating
Summary of the method: as §2

[6] = test system: Botrytis cinerea; test: Test F: tomato Botrytis, preventive spray on tomato seedlings, disease rating
Summary of the method: as §1

[7] = 200 ppm, 100 = 100% disease control, 0 = no control relative to controls
[8] = 40 ppm (*), 100 = 100% disease control, 0 = no control relative to controls

Structure (SMILES) | Percentage Disease Control, Test H ([1]; 200 ppm) [%] | Percentage Disease Control, Test F ([6]; 200 ppm) [%] | Percentage Disease Control, Test H ([1]; 40 ppm (*)) | Percentage Disease Control, Test D ([2]; 40 ppm (*)) | Percentage Disease Control, Test B ([3]; 40 ppm (*)) | Percentage Disease Control, Test C ([4]; 40 ppm (*)) | Percentage Disease Control, Test A ([5]; 40 ppm (*)) | Percentage Disease Control, Test H [1, 7] [%] | Percentage Disease Control, Test A [5, 7] [%] | Percentage Disease Control, Test F [6, 7] [%] | also measured
COC(=O)NCc1cc(-c2ccn(-c3cccc(F)c3)n2)ccc1Cl [Cmpd 115] | 96 | 32 |  |  |  |  |  |  |  |  | Percentage Disease Control, Test D ([2]; 200 ppm): 100%; Percentage Disease Control, Test B ([3]; 200 ppm): 99%; Percentage Disease Control, Test C ([4]; 200 ppm): 100%; Percentage Disease Control, Test A ([5]; 200 ppm): 98%
COC(=O)NCc1cc(-c2ccn(-c3ccc(Cl)c(Cl)c3)n2)ccc1Cl [Cmpd 117] | 95 | 94 |  |  |  |  |  |  |  |  | Percentage Disease Control, Test D ([2]; 200 ppm): 100%; Percentage Disease Control, Test B ([3]; 200 ppm): 99%; Percentage Disease Control, Test C ([4]; 200 ppm): 100%; Percentage Disease Control, Test A ([5]; 200 ppm): 98%
COC(=O)NCc1cc(-c2ccn(-c3ccc(OC)cc3)n2)ccc1Cl [Cmpd 106] |  | 0 | 92* % | 100* % | 100* % | 100* % | 98* % |  |  |  | 
COC(=O)NCc1cc(-c2ccn(CCc3ccccc3)n2)ccc1Cl [Cmpd 58] |  |  | 89* % | 99* % | 100* % | 100* % | 98* % |  |  |  | Percentage Disease Control, Test F ([6]; 40 ppm (*)): 0* %
COC(=O)NCc1cc(-c2ccn(-c3nc(C(C)(C)C)ns3)n2)ccc1Cl [Cmpd 96] | 59 | 0 |  | 100* % | 100* % | 100* % | 100* % |  |  |  | 
CCCn1nc(C(F)(F)F)cc1-c1ccc(Cl)c(CNC(=O)OC)c1 [Cmpd 144] |  |  |  |  |  |  |  | 0 | 97 | 0 | Percentage Disease Control, Test D [2, 7]: 95%; Percentage Disease Control, Test B [3, 7]: 19%; Percentage Disease Control, Test C [4, 7]: 0%
COC(=O)NCc1cc(-c2ccnc(-c3cccc(C)c3)n2)ccc1Cl [Cmpd 133] |  |  |  |  |  |  |  | 0 | 94 | 0 | Percentage Disease Control, Test D [2, 8]: 92* %; Percentage Disease Control, Test B [3, 7]: 93%; Percentage Disease Control, Test C [4, 7]: 93%
COC(=O)NCc1cc(-c2ccnc(C3CC3)n2)ccc1Cl [Cmpd 137] |  |  |  |  |  |  |  | 15 | 95 | 0 | Percentage Disease Control, Test D [2, 8]: 97* %; Percentage Disease Control, Test B [3, 7]: 99%; Percentage Disease Control, Test C [4, 8]: 90* %
COC(=O)NCc1cc(-c2ccn(Cc3ccccc3)n2)ccc1Cl [Cmpd 57] |  |  | 96* % | 100* % | 100* % | 87* % | 97* % |  |  |  | Percentage Disease Control, Test F ([6]; 40 ppm (*)): 0* %
CCCCCc1cc(-c2ccc(Cl)c(CNC(=O)OC)c2)nn1C [Cmpd 98] | 0 | 0 |  |  | 98* % | 90* % |  |  |  |  | Percentage Disease Control, Test D ([2]; 200 ppm): 98%; Percentage Disease Control, Test A ([5]; 200 ppm): 91%
COC(=O)NCc1cc(-c2ccn(Cc3cccc(OC(F)(F)F)c3)n2)ccc1Cl [Cmpd 65] |  |  | 8* % | 100* % | 99* % | 99* % | 99* % |  |  |  | Percentage Disease Control, Test F ([6]; 40 ppm (*)): 0* %
COC(=O)NCc1cc(-c2ccnc(-c3ccc(C)cc3)n2)ccc1Cl [Cmpd 132] |  |  |  |  |  |  |  | 0 | 80 | 0 | Percentage Disease Control, Test D [2, 8]: 100* %; Percentage Disease Control, Test B [3, 8]: 95* %; Percentage Disease Control, Test C [4, 8]: 98* %
COC(=O)NCc1cc(-n2ccc(-c3ccc(Cl)cc3)n2)ccc1Cl [Cmpd 122] |  | 63 | 97* % | 100* % | 100* % | 100* % | 100* % |  |  |  | 
COC(=O)NCc1cc(-c2ccnc(Cl)n2)ccc1Cl [Cmpd 130] |  |  |  |  |  |  |  | 0 | 80 | 0 | Percentage Disease Control, Test D [2, 7]: 96%; Percentage Disease Control, Test B [3, 7]: 67%; Percentage Disease Control, Test C [4, 7]: 92%
COC(=O)NCc1cc(-c2ccn(-c3cccc(C#N)c3)n2)ccc1Cl [Cmpd 113] | 0 | 24 |  |  |  |  |  |  |  |  | Percentage Disease Control, Test D ([2]; 200 ppm): 100%; Percentage Disease Control, Test B ([3]; 200 ppm): 99%; Percentage Disease Control, Test C ([4]; 200 ppm): 100%; Percentage Disease Control, Test A ([5]; 200 ppm): 92%
COC(=O)NCc1cc(-c2ccn(-c3ccc(C)cc3)n2)ccc1Cl [Cmpd 109] |  |  | 100* % | 99* % | 100* % | 100* % | 98* % |  |  |  | Percentage Disease Control, Test F ([6]; 40 ppm (*)): 92* %
COC(=O)NCc1cc(-c2ccn(-c3nc(OC)ns3)n2)ccc1Cl [Cmpd 92] | 15 | 0 |  |  | 97* % | 92* % |  |  |  |  | Percentage Disease Control, Test D ([2]; 200 ppm): 72%; Percentage Disease Control, Test A ([5]; 200 ppm): 82%
COC(=O)NNc1cc(-c2ccn(-c3cccc(C(F)(F)F)c3)n2)ccc1Cl [Cmpd 64] | 62 | 16 |  | 93* % | 100* % |  | 99* % |  |  |  | Percentage Disease Control, Test C ([4]; 200 ppm): 99%
COC(=O)NCc1cc(-c2ccnc(-c3ccccc3)n2)ccc1Cl [Cmpd 134] |  |  |  |  |  |  |  | 0 | 0 | 0 | Percentage Disease Control, Test D [2, 7]: 87%; Percentage Disease Control, Test B [3, 7]: 84%; Percentage Disease Control, Test C [4, 8]: 96* %
COC(=O)NCc1cc(-c2ccn(-c3cccc(OC(F)(F)F)c3)n2)ccc1Cl [Cmpd 68] |  | 0 | 86* % | 100* % | 100* % | 99* % | 97* % |  |  |  | 
COC(=O)NCc1cc(-c2ccn(-c3ccc(C(C)=O)cc3)n2)ccc1Cl [Cmpd 150] |  |  |  |  |  |  |  | 92 | 71 | 0 | Percentage Disease Control, Test D [2, 7]: 99%; Percentage Disease Control, Test B [3, 7]: 98%; Percentage Disease Control, Test C [4, 7]: 100%
COC(=O)NCc1cc(-c2ccn(-c3ccc(F)c(F)c3)n2)ccc1Cl [Cmpd 118] | 99 | 40 |  |  |  |  |  |  |  |  | Percentage Disease Control, Test D ([2]; 200 ppm): 100%; Percentage Disease Control, Test B ([3]; 200 ppm): 100%; Percentage Disease Control, Test C ([4]; 200 ppm): 100%; Percentage Disease Control, Test A ([5]; 200 ppm): 100%
COC(=O)NCc1cc(-c2ccn(-c3cccc(Cl)c3)n2)ccc1Cl [Cmpd 80] |  |  | 29* % | 100* % | 98* % | 100* % | 98* % |  |  |  | Percentage Disease Control, Test F ([6]; 40 ppm (*)): 60* %
COC(=O)NCc1cc(-c2cnn(Cc3ccc(C)cc3)n2)ccc1Cl [Compound 146] |  |  |  |  |  |  |  | 22 | 52 | 0 | Percentage Disease Control, Test D [2, 7]: 93%; Percentage Disease Control, Test B [3, 7]: 93%; Percentage Disease Control, Test C [4, 7]: 99%
CNC(=O)C(=NOC)c1cc(-c2ccn(-c3cccc(C(F)(F)F)c3)n2)ccc1C [Cmpd 85] | 86 | 0 |  | 99* % | 97* % | 99* % | 100* % |  |  |  | 
COC(=O)NCc1cc(-c2ccn(CC(C)Oc3ccccc3)n2)ccc1Cl (racemic) [Cmpd 61] |  |  | 0* % | 99* % | 100* % | 99* % | 84* % |  |  |  | Percentage Disease Control, Test F ([6]; 40 ppm (*)): 0* %
COC(=O)NCc1cc(-c2cc(C(F)(F)F)nn2CCC(C)(C)C)ccc1Cl [Cmpd 142] |  |  |  |  |  |  |  | 16 | 85 | 0 | Percentage Disease Control, Test D [2, 7]: 92%; Percentage Disease Control, Test B [3, 7]: 55%; Percentage Disease Control, Test C [4, 7]: 0%
CCSc1nsc(-n2ccc(-c3ccc(Cl)c(CNC(=O)OC)c3)n2)n1 [Cmpd 93] | 15 | 0 |  | 96* % | 98* % | 100* % | 93* % |  |  |  | 
